Experimental data published in paper PMC3413639 (PLoS ONE, 2012).
Like-named read-outs stand apart in the source and are kept apart here.

Tests used:
5-HT1A receptors [1] = biological target: T1, 5-HT1A receptors (Rattus norvegicus, UniProt P19327); assay: Ex vivo ARG, 5-HT1A receptor occupancy after drug administration; format: in vivo; parameters: Twenty-micrometer-thick frozen brain sections were preincubated; from tissue; host or cells: rat brain (hippocampus and raphe nucleus): frozen sections or living animals; settings: for ED50: rat, po, ex vivo ARG, read-out: ED50 (5-HT1A receptor occupancy)
T1 sequence (P19327 1-422): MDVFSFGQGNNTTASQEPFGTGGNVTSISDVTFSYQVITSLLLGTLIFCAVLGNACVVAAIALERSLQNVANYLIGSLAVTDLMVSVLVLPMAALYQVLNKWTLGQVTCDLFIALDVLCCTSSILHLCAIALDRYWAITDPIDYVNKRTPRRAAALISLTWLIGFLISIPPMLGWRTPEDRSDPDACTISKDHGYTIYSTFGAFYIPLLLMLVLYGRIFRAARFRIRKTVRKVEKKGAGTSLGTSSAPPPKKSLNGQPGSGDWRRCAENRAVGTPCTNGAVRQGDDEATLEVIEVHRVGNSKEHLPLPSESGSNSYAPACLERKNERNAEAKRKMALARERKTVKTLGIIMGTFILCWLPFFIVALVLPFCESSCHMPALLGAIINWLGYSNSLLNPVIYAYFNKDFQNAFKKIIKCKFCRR
Experimental: Animals were then killed by decapitation 5 h and 30 min after their administration, respectively. Autoradiographic analysis was performed using procedures similar to in vitro ARG except for incubation temperature (37°C) and times for preincubation (30 sec), incubation (5 min) and rinsing (1 min). […] The doses of these drugs at half-maximal effect (ED50) were determined according to the following relationship: [drawing 2] where D is the dose of the drug.

5-HT1A receptors [2] = biological target: T1, 5-HT1A receptors; parameters: method as in earlier work; settings: rat hippocampal homogenates; read-out: Ki (in vitro estimate); cited from earlier work

Cc1nnc(-c2cc3c(OC[C@@H](O)CN4CCC(c5ccc(Cl)c(Cl)c5)CC4)cccc3o2)o1.Cl [Wf-516, (2S)-1-[4-(3,4-dichlorophenyl)piperidin-1-yl]-3-[2-(5-methyl-1,3,4-oxadiazol-2-yl)benzo[b]furan-4-yloxy]propan-2-ol monohydrochloride]
5-HT1A receptor binding (occupancy), dose-dependent up to (5-HT1A receptors [1]; oral, 5 h after administration, irrespective of region): approximately 80%
ED50 (5-HT1A receptors [1]; hippocampus): 5.3 mg/kg
ED50 (5-HT1A receptors [1]; raphe nucleus): 4.2 mg/kg
Ki (5-HT1A receptors [2]): 7.4 nM
